This note sets out measurements from PubChem BioAssay (NCI).

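Following 48 hours of exposure in 96-well plates, responses at five concentrations were used to interpolate endpoints linearly. The concentration for 50% growth inhibition is given as GI50. TGI is the concentration that stops growth completely.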

Some test systems named below: SK-MEL-28 melanoma; SNB-19 CNS; CAKI-1 renal; HOP-62 NSCLC; HT29 colon; SK-MEL-5 melanoma; A498 renal.
Holding throughout (assay): NCI tumour cell line growth inhibition, 48 h

In the case of `COC1=C(Br)C(=O)c2nc(C)ccc2C1=O`, the TGI with SK-MEL-28 melanoma is 33.1 µM; in the experiment on SNB-19 CNS, more than 55.1 µM; in the experiment with CAKI-1 renal, 29.3 µM; in the experiment on HOP-62 NSCLC, more than 60.3 µM; in the experiment on HT29 colon, 34.9 µM; with SK-MEL-5 melanoma, 32 µM. The TGI in the experiment on A498 renal was 36.4 µM.

As to `N.N.NCCCCCCCCCN.O=C([O-])CC(=O)[O-].O=C([O-])CC(=O)[O-].[Pt+4].[Pt+4]`, the GI50 is 87.5 µM with SK-MEL-28 melanoma; more than 100 µM in the experiment on SNB-19 CNS; 22.3 µM in the experiment with CAKI-1 renal; more than 100 µM with HOP-62 NSCLC; more than 100 µM with HT29 colon; 28.9 µM in the experiment on SK-MEL-5 melanoma. Besides, the GI50 in the experiment with A498 renal is more than 100 µM. The TGI is more than 100 µM in the experiment on SK-MEL-28 melanoma; more than 100 µM in the experiment on SNB-19 CNS; 91.1 µM with CAKI-1 renal; more than 100 µM with HOP-62 NSCLC; more than 100 µM in the experiment with HT29 colon; 81.7 µM in the experiment with SK-MEL-5 melanoma. Further, in the experiment on A498 renal, the TGI was more than 100 µM.

`[F][Sn]([F])([c]1ccccc1)[c]1ccccc1`: the GI50 with SK-MEL-28 melanoma was 1.96 µM; with SNB-19 CNS it was 2.25 µM; in the experiment on CAKI-1 renal, 1.32 µM; in the experiment on HOP-62 NSCLC it was 2.32 µM; in the experiment on HT29 colon, 1.78 µM; with SK-MEL-5 melanoma, 1.78 µM. The TGI in the experiment on SK-MEL-28 melanoma stood at 3.75 µM; in the experiment with SNB-19 CNS, 5.58 µM; with CAKI-1 renal, 3.22 µM; in the experiment with HOP-62 NSCLC, 4.85 µM; with HT29 colon it was 3.85 µM; with SK-MEL-5 melanoma, 3.31 µM.

On to `Cc1cccc(C(C)C)c1NC(=O)C(=O)C(C(=O)c1ccccc1F)C1OC(=O)c2ccccc21` (configuration not stated), for which the TGI was 53.7 µM in the experiment with SK-MEL-28 melanoma; 29 µM in the experiment with SNB-19 CNS; 70.5 µM with CAKI-1 renal; 35.8 µM in the experiment on HOP-62 NSCLC; 71.7 µM in the experiment with HT29 colon; 28.5 µM with SK-MEL-5 melanoma. Also, the TGI in the experiment with A498 renal was found to be 45.1 µM.

Turning to `CCOC(=O)Cn1c(=O)n(C)c(=O)c2c1ncn2Cc1ccccc1`, the TGI in the experiment with SK-MEL-28 melanoma, with SNB-19 CNS, with CAKI-1 renal, in the experiment with HOP-62 NSCLC, in the experiment with HT29 colon and with SK-MEL-5 melanoma was more than 100 µM throughout. In the experiment with A498 renal, this molecule yielded a TGI of more than 100 µM.

For the molecule `COc1cc(C(=O)N2CCc3c([nH]c4c([N+](=O)[O-])c(OC)ccc34)C2C)cc(OC)c1OC` (configuration not stated), the TGI with SK-MEL-28 melanoma, with SNB-19 CNS, in the experiment with CAKI-1 renal, in the experiment on HOP-62 NSCLC, in the experiment on HT29 colon and with A498 renal was more than 100 µM each time.

Consider `COC(=O)/C(=C\c1ccc(N(CCC#N)CCC#N)cc1)NC(=O)c1cc([N+](=O)[O-])ccc1Cl`, for which the TGI in the experiment with SK-MEL-28 melanoma, in the experiment with SNB-19 CNS, in the experiment on CAKI-1 renal, with HOP-62 NSCLC, with HT29 colon and in the experiment with SK-MEL-5 melanoma was more than 100 µM throughout. The same molecule yielded a TGI in the experiment with A498 renal of more than 100 µM.

Take `CC1=C(c2cc(C(=O)Nc3ccc(Cl)cc3)nc(=S)[nH]2)Sc2ccccc2N1`: the TGI in the experiment with SK-MEL-28 melanoma, with SNB-19 CNS, in the experiment on CAKI-1 renal, in the experiment on HOP-62 NSCLC, in the experiment on HT29 colon and with SK-MEL-5 melanoma was more than 100 µM in each case. In addition, in the experiment on A498 renal, the TGI was more than 100 µM.

For the molecule `C/C(CCn1[nH]c(=O)ccc1=O)=N\OCCCc1ccccc1`, the TGI in the experiment on SK-MEL-28 melanoma, in the experiment with SNB-19 CNS, in the experiment with CAKI-1 renal, in the experiment with HOP-62 NSCLC, in the experiment with HT29 colon and in the experiment with SK-MEL-5 melanoma was more than 100 µM throughout. In the experiment with A498 renal, this molecule came in with a TGI of more than 100 µM.

As for `Cc1cc(C(C)(C)C)cc(Cc2cc(C(C)(C)C)cc(Cc3cc(C(C)(C)C)cc(C)c3O)c2O)c1O`, the TGI in the experiment with SNB-19 CNS came out at 26 µM; in the experiment with CAKI-1 renal, 25.6 µM; in the experiment with HOP-62 NSCLC it was 28.9 µM; in the experiment with HT29 colon, 24 µM; with SK-MEL-5 melanoma, 21.6 µM; with A498 renal it was 45.1 µM.

As to `c1ccc(CSc2nc3ccccc3nc2-c2cccs2)cc1`, the TGI in the experiment on SK-MEL-28 melanoma, in the experiment with SNB-19 CNS, in the experiment on HOP-62 NSCLC, in the experiment on HT29 colon and with SK-MEL-5 melanoma was more than 100 µM each time.

As to `CCOc1ccccc1NC(=O)C(=O)Cc1nc2ccccc2s1`, the TGI with SK-MEL-28 melanoma, in the experiment on SNB-19 CNS, in the experiment with CAKI-1 renal, in the experiment on HOP-62 NSCLC, with HT29 colon and in the experiment on SK-MEL-5 melanoma was more than 100 µM throughout. The molecule also showed a TGI in the experiment with A498 renal of more than 100 µM.

`CC1=C(C(=O)NNS(=O)(=O)c2ccc(C)cc2)CC(C(=O)NNS(=O)(=O)c2ccc(C)cc2)=C(C)N1`: the TGI with SK-MEL-28 melanoma, with SNB-19 CNS, with CAKI-1 renal, in the experiment on HOP-62 NSCLC and in the experiment on HT29 colon was more than 100 µM throughout.

As for `Cc1cccc(N=C2NC(=O)C(CC(=O)Nc3cccc(C)c3C)S2)c1` (configuration not stated), the TGI with SK-MEL-28 melanoma, in the experiment with SNB-19 CNS, in the experiment on HOP-62 NSCLC, in the experiment on HT29 colon and in the experiment on SK-MEL-5 melanoma was more than 100 µM each time.

For the molecule `CC(C)(C)OC(=O)N1N=NC2C1C1CC(OCc3ccccc3)(OCc3ccccc3)C2O1` (configuration not stated), the TGI in the experiment with SK-MEL-28 melanoma was 91.3 µM; with CAKI-1 renal, more than 100 µM; with HOP-62 NSCLC, more than 100 µM; in the experiment on HT29 colon it was more than 100 µM; in the experiment on SK-MEL-5 melanoma, 32.6 µM; in the experiment on A498 renal it was more than 100 µM.

`COc1cc(C(=O)C/C(CCC(=O)Nc2ccc(Cl)cc2Cl)=N/NC(=O)C(=O)NN)ccc1O`: the TGI in the experiment on SK-MEL-28 melanoma, in the experiment with SNB-19 CNS, in the experiment on CAKI-1 renal, with HOP-62 NSCLC, in the experiment on HT29 colon and with SK-MEL-5 melanoma was more than 100 µM in each case. The same molecule displayed a TGI in the experiment on A498 renal of more than 100 µM.

As to `OCCNCCOc1ccc(/C(=C(/Cl)c2ccccc2)c2ccccc2)cc1`, the TGI with SK-MEL-28 melanoma was 3.16 µM; in the experiment on SNB-19 CNS, 28.4 µM; in the experiment on CAKI-1 renal, 25.7 µM; in the experiment with HOP-62 NSCLC, 31.4 µM; in the experiment with HT29 colon it was 10 µM; in the experiment on SK-MEL-5 melanoma, 19.2 µM.

For the molecule `O=C1C(=O)N(c2cc(Cl)ccc2Cl)C(=O)C(=O)C1c1nc2ccccc2o1`, the TGI in the experiment on SK-MEL-28 melanoma, in the experiment on SNB-19 CNS, with CAKI-1 renal, in the experiment on HOP-62 NSCLC, in the experiment with HT29 colon and in the experiment with SK-MEL-5 melanoma was more than 100 µM in each case. In the experiment with A498 renal, this molecule gave a TGI of more than 100 µM.

For `CCOC(=O)/C(=C/c1cccc(C#N)c1)N(CC)CC`, the TGI with SK-MEL-28 melanoma, in the experiment with CAKI-1 renal, with HOP-62 NSCLC, in the experiment on HT29 colon, in the experiment on SK-MEL-5 melanoma and in the experiment with A498 renal was more than 100 µM each time.

In the case of `Oc1ccc(Br)cc1C=Nc1ccc(N=Cc2cc(Br)ccc2O)cc1`, the TGI in the experiment with SNB-19 CNS, in the experiment on CAKI-1 renal, with HT29 colon, in the experiment on SK-MEL-5 melanoma and with A498 renal was more than 100 µM in each case.

As for `N#CC(C(=O)CCC(=O)Nc1cccc(C(F)(F)F)c1)c1ccc(Cl)cc1` (configuration not stated), the TGI in the experiment with SNB-19 CNS, in the experiment with CAKI-1 renal, in the experiment on HOP-62 NSCLC, in the experiment with HT29 colon, with SK-MEL-5 melanoma and with A498 renal was more than 100 µM each time.

Consider `CC(=O)OC1C2CCC1C1C2C2(Cl)C(Cl)=C(Cl)C1(Cl)C2(Cl)Cl` (configuration not stated), for which the TGI in the experiment with SK-MEL-28 melanoma was determined as 34.3 µM; in the experiment on SNB-19 CNS it was 28.6 µM; in the experiment with CAKI-1 renal, 27 µM; with HOP-62 NSCLC, 29 µM; in the experiment on HT29 colon, 28 µM; with SK-MEL-5 melanoma it was 26 µM. The TGI in the experiment on A498 renal worked out at 27 µM.

On to `O=S1(=O)OCCOS(=O)(=O)C1Cl`, for which the TGI with SK-MEL-28 melanoma, in the experiment on SNB-19 CNS, with CAKI-1 renal, in the experiment on HOP-62 NSCLC, in the experiment with HT29 colon and in the experiment with SK-MEL-5 melanoma was more than 100 µM in each case. Besides, the TGI in the experiment on A498 renal was more than 100 µM.

`O=C(O)CN(c1ccccc1)S(=O)(=O)c1ccc([N+](=O)[O-])cc1`: the TGI in the experiment with SNB-19 CNS, in the experiment with CAKI-1 renal, in the experiment on HT29 colon, in the experiment with SK-MEL-5 melanoma and with A498 renal was more than 100 µM each time.

Turning to `O=c1c2ccccc2nc(-c2ccccc2)n1NC(=S)Nc1ccccc1`, the TGI in the experiment on SK-MEL-28 melanoma, with CAKI-1 renal, with HOP-62 NSCLC, in the experiment on HT29 colon, in the experiment with SK-MEL-5 melanoma and in the experiment with A498 renal was more than 100 µM in each case.

Consider `CC1CN1c1c(C(=O)/C=C/c2ccc(Cl)cc2)c(-c2ccccc2)nn(C)c1=O` (configuration not stated), for which the TGI in the experiment with SK-MEL-28 melanoma was more than 10 µM; in the experiment on SNB-19 CNS it was more than 10 µM; in the experiment with CAKI-1 renal it was more than 10 µM; with HOP-62 NSCLC, 7.66 µM; with HT29 colon it was more than 10 µM; in the experiment on A498 renal, more than 10 µM.

`CN(C)CCSc1nccc(-c2cc3ccccc3s2)n1`: the TGI in the experiment with SK-MEL-28 melanoma was 40.9 µM; in the experiment with CAKI-1 renal it was 56.7 µM; in the experiment on HOP-62 NSCLC, 52.7 µM; in the experiment on HT29 colon, 24.3 µM; in the experiment with SK-MEL-5 melanoma, 27.9 µM; in the experiment with A498 renal, 58.3 µM.
